In PMC7239840, “A traffic light enzyme: acetate binding reversibly switches chlorite dismutase from a red- to a green-colored heme protein” (Journal of Biological Inorganic Chemistry, 2020):
Each block holds one compound with its values, some of them ahead of it.

Experiments:
[1] = target: T1, chlorite dismutase (AoCld) (Azospira oryzae, UniProt E2DI02); experiment: biochemical
[2] = target: T1, chlorite dismutase (AoCld); experiment: UV-visible equilibrium binding titration (Soret band), pH […]; EPR with […] hyperfine splitting; design: recombinant, N-terminal His6 tag
[3] = target: T2, chlorite dismutase (AoCld) R183A (Azospira oryzae, UniProt E2DI02, R217A); experiment: ligand binding to the R183A mutant (Fig. S7)
T2 construct: recombinant, N-terminal His6 tag

[4] = target: T1, chlorite dismutase (AoCld); experiment: UV-visible equilibrium binding titration (Soret band), pH […]; EPR low-spin adduct; design: recombinant, N-terminal His6 tag

T1 sequence (E2DI02 35-282): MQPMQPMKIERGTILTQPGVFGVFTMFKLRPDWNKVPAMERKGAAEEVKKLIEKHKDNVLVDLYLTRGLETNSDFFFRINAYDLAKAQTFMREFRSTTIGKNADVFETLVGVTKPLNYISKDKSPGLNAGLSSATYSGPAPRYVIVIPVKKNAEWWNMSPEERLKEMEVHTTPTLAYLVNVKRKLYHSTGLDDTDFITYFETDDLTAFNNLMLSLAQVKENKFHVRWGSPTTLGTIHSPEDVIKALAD
T2 sequence (E2DI02 35-282, stated change not applied): as the sequence (E2DI02 35-282) above

Kd [1]: 17.5 ± 0.5 mM
Compound: CC(=O)O [Ac, acetate]

Compound: F [F^−, fluoride]
Kd [2]: 15.6 ± 1.9 mM

Compound: c1c[nH]cn1 [Im, imidazole]
ligand binding to the R183A mutant (Fig. S7) [3]: Mutagenesis of Arg183 to Ala results in the complete loss of affinity for fluoride and acetate, but not for imidazole
Kd [4]: 0.0105 ± 0.0024 mM
